The pKi is −log10 of the Ki, conventionally taken in molar units. Higher therefore signals a small Ki.

One assay concerns the target MT1 receptor (Homo sapiens, UniProt P48039). As to the kind of experiment: Melatonin MT1 receptor binding study. On the procedure: (§1) The MT1 or MT2 receptor binding experiments are carried out using 2-[^125 I]-iodomelatonin as reference radioligand. The radioactivity retained is determined using a liquid scintillation counter.
(§2) Competitive binding experiments are then carried out in triplicate using the various test compounds. A range of different concentrations is tested for each compound. The results enable the binding affinities of the compounds tested (Ki) to be determined.

The target of the next assay is T1, MT2 receptor (Homo sapiens, UniProt P49286).
T1 sequence (P49286 1-362): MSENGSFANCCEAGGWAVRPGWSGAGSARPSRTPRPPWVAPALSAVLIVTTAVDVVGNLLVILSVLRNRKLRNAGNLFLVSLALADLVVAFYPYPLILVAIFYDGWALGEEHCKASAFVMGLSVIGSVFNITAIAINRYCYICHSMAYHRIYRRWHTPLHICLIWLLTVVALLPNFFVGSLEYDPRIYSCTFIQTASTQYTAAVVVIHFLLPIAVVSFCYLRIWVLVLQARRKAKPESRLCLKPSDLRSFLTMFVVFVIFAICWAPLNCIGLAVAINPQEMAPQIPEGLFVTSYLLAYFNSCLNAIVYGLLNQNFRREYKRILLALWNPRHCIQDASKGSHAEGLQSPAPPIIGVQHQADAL
Put plainly: Melatonin MT2 receptor binding study. On the procedure: as §1, §2

pKi: −log10 of the molar value.

Chain of MT1 receptor (P48039 whole entry): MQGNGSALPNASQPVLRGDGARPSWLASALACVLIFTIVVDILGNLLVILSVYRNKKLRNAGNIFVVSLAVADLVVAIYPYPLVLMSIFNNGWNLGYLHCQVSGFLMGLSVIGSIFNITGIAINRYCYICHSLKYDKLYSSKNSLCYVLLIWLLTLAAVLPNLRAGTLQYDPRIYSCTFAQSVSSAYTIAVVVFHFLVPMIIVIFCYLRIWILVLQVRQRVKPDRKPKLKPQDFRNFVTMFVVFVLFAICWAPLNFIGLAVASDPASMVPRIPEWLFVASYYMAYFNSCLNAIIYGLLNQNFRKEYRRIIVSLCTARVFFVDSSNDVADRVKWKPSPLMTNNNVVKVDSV

For `COc1ccc2cccc(C(CO)CNC(=O)CF)c2c1` (centres unmarked) [Example 1, 2-Fluoro-N-[3-hydroxy-2-(7-methoxy-1-naphthyl)propyl]acetamide], the pKi at MT1 receptor was 8.33; at MT2 receptor it was 9.30.

For the origin of these results see patent US7435850B2, “Naphthalene compounds” (Les Laboratoires Servier, priority 2006, dated 2008).
